Reference: patent US7928113B2, “Integrin-binding small molecules” (University of Southern California, priority 2005, dated 2011)

Tests used:
[1] = test system: HEY ovarian cancer cell line; assay: Cytotoxicity MTT assay, HEY; type: cell-based, human; details: Homo sapiens; 20 μM, HEY, 72 h MTT; read-out: % inhibition of cell growth at 20 μM, HEY
Description: (§1) Cell Culture. Human breast cancer cells (MCF-7, αvβ3—, overexpressed wild-type p53, ER+; MDA-MB 468, p53 mutant, ER+; and MDA-MB-435, αvβ3+, p53 mutant, ER−) and non-small cell lung cancer cells H1975 were obtained from the American Type Cell Culture (Rockville, Md. Q4). The HEY human ovarian carcinoma cell line naturally resistant to cisplatin (CDDP) was kindly provided by Dr. Dubeau (University of Southern California Norris Cancer Center). Cells were maintained as monolayer cultures in RPMI 1640 supplemented with 10% fetal bovine serum (Gemini-Bioproducts, Woodland, Calif.) and 2 mmol/L L-glutamine at 37° C. in a humidified atmosphere of 5% CO2. To remove the adherent cells from the flask for passaging and counting, cells were washed with PBS without calcium or magnesium, incubated with a small volume of 0.25% trypsin-EDTA solution (Sigma, St. Louis, Mo.) for 5 to 10 minutes, and washed with culture medium and centrifuged. All experiments were done using cells in exponential cell growth.
(§2) Cytotoxicity Assay. Cytotoxicity was assessed by 3-(4,5-dimethylthiazol-2-yl)-2,5-diphenyltetrazolium bromide (MTT) assay as previously described.^41, 54 Briefly, cells were seeded in 96-well microtiter plates and allowed to attach. Cells were subsequently treated with a continuous exposure to the corresponding drug for 72 hours. An MTT solution (at a final concentration of 0.5 mg/mL) was added to each well and cells were incubated for 4 hours at 37° C. After removal of the medium, DMSO was added and the absorbance was read at 570 nm. All assays were done in triplicate. The IC50 was then determined for each drug from a plot of log (drug concentration) versus percentage of cell kill.
(§3) Cytotoxicity of Selected Compounds in a Panel of Cancer Cell lines. Initially, we tested all compounds in two breast cancer cell lines MDA-MB-435 and MCF7 with high and low αvβ3 expression as well as in HEY ovarian cancer cell line naturally resistant to cisplatin. […] We observed a remarkable specificity for some of the compounds against these cells. […] Considering the fact that αvβ3 mediates migration, attachment and apoptosis of cancer cells, the combination of these novel high affinity antagonists with conventional cytotoxic drugs should show improved therapeutic benefits without additional toxicity.
(§4) NVX-188 was tested for cytotoxicity by MTT assays in two breast cancer cell lines, MDA-MB-435 with high αvβ3 integrin expression and MCF7 with low αvβ3 integrin expression, and an ovarian cancer cell line, HEY, which was used to test for cell growth inhibition evidence. NVX-188 was further evaluated in a lung cancer cell line, NCI-H1975, and a mouse fibroblast, NIH3T3. NVX-188 was not cytotoxic at the highest dose level tested (20 uM).

[2] = test system: MCF7 breast cancer cell line; assay: Cytotoxicity MTT assay, MCF7; type: cell-based, human; details: Homo sapiens; 20 μM, MCF7, 72 h MTT; read-out: % inhibition of cell growth at 20 μM, MCF7
Description: as §1, §2, §3, §4

[3] = test system: MDA-MB-435 breast cancer cell line; assay: Cytotoxicity MTT assay, MDA-MB-435; type: cell-based, human; details: Homo sapiens; 20 μM, MDA-MB-435, 72 h MTT; read-out: % inhibition of cell growth at 20 μM, 435
Description: as §1, §2, §3, §4

[4] = Cytotoxicity MTT assay, HEY; type: cell-based, human; details: human, HEY ovarian carcinoma cells; HEY, Table 5
Description: as §1, §2, §3, §4

[5] = Cytotoxicity MTT assay, MCF7; type: cell-based, human; details: human, MCF-7 breast cancer cells; MCF-7, Table 5
Description: as §1, §2, §3, §4

[6] = Cytotoxicity MTT assay, NCI-H1975; type: cell-based, human; details: human, NCI-H1975 non-small cell lung cancer cells; NCI-H1975, Table 5
Description: as §1, §2, §3, §4

αvβ3 integrin = target: T1, αvβ3 integrin (Homo sapiens, UniProt P05106+P06756); assay: Receptor binding assay, competitive binding with 125I-labeled echistatin on the surface of NCI-H1975 cells; details: 125I-echistatin competition, NCI-H1975 cells; read-out: αvβ3 binding affinity (IC50)
T1 construct: endogenous in cells; host or cells: NCI-H1975 cells (non-small cell lung cancer), whole cells in suspension
Method: Receptor Binding Assay. […] 96-Well multiscreen DV plate (filter pore size: 0.65 μm, Millipore, Billerica, Mass.) was incubated with ^125I-echistatin (50,000 cpm/well) in the presence of increasing concentrations of αvβ3 antagonists. The total incubation volume was adjusted to 200 μL. After the cells were incubated for 3 h at room temperature, the plate was filtered through multiscreen vacuum manifold and washed twice with cold binding buffer. The hydrophilic PVDF filters were collected, and the radioactivity was determined using NaI(Tl) gamma counter (Packard, Meriden, Conn.). The best-fit IC50 values were calculated by fitting the data by nonlinear regression using GraphPad Prism (GraphPad Software, Inc., San Diego, Calif.). Experiments were carried out with triplicate samples.
αvβ3 Binding. Receptor binding affinity of all compounds on the surface of non-small cell lung cancer NCI-H1975 cells was determined in competitive binding experiments using ^125I-labeled echistatin as radioligand and the results are presented in Table 3. […] These compounds represent a novel set of antagonists with diverse structural scaffolds. […] This is an important feature considering the highly electrostatic nature of the RGD peptide binding region of αvβ3. The RGD peptide forms strong electrostatic interactions through its two charged ends with αvβ3 in the αvβ3-cyclic RGD peptide complex crystal structure. Compounds AV3, AV27, and AV32 broadly fall into a RGD mimetic antagonist category, since they have a carboxylate group or amine/amide group, at either ends that can establish similar electrostatic interactions with αvβ3. Additionally, presence of several hydrophilic functional groups on these compounds favors their interaction with the highly electrostatic region of the RGD binding site of αvβ3. Given these interesting structural features, we tested additional structurally close analogues of AV27 and AV32. However, substructure search queries using the core scaffolds of these compounds in our in-house databases yield no close analogues. Structure-activity studies around the core scaffolds of these two compounds might be an alternative option to further optimize their binding affinity towards αvβ3. […] We carried out a limited structure-activity relationship (SAR) analysis on compound AV26 by testing compounds AV34-AV38 in our binding assay (Table 3). The substructure search using the core scaffold of AV26 as a search query retrieved few compounds from our in-house database of 359,224 compounds. The analogues AV34-AV38 were purchased from Chemical Diversity (San Diego, Calif.) and screened for their αvβ3 binding affinity. […] Studies are also underway to selectively deliver cytotoxic agents such as paclitaxel to αvβ3 overexpressing cancers through covalent conjugation.
Receptor binding affinity of NVX-188 was determined through a competitive binding experiment using ^125I-radiolabeled echistatin on NCI-H1975 cells. Increasing concentrations of NVX-188 were added with a fixed amount of echistatin to determine the concentration of NVX-188 that prevents 50% of the echistatin from binding to αvβ3 integrin on the cell surface (i.e., IC50).

[7] = Cytotoxicity MTT assay, MDA-MB-435; type: cell-based, human; details: human, MDA-MB-435 breast cancer cells; MDA-MB-435, Table 5
Description: as §1, §2, §3, §4

[8] = Cytotoxicity MTT assay, NIH3T3; type: cell-based, mouse; details: mouse, NIH3T3 fibroblasts; NIH3T3, Table 5
Method: as §2, §3, §4

IC50 (αvβ3 integrin) [µM] | Structure (SMILES) | inhibition at 20 µM [1] [%] | inhibition at 20 µM [2] [%] | inhibition at 20 µM [3] [%] | IC50 at 72 h [4] [µM] | IC50 at 72 h [5] [µM] | IC50 at 72 h [6] [µM] | IC50 at 72 h [7] [µM] | IC50 at 72 h [8] [µM]
– | CCC(=O)Nc1ccc(C(=O)Nc2ccc(OCC(=O)O)cc2)cc1 [AV28] | 34 | 32 | 32 | – | – | – | – | –
– | COc1cc(OC)c(/C=C2\S/C(=N/c3ccc(C(=O)O)cc3)N(C)C2=O)cc1Br [AV36] | 4 | 29 | 16 | – | – | – | – | –
0.052 | Nc1nc(O)c2nc(CCCNc3ccc(C(=O)NC(CCC(=O)O)C(=O)O)cc3)cnc2n1 (stereo not drawn) [AV3] | 0 | 0 | 0 | > 20 | > 20 | > 20 | > 20 | > 20
– | CCn1cc(C(=O)O)c(=O)c2cc(F)c(N3CCN(S(=O)(=O)c4ccc(NC(C)=O)cc4)CC3)cc21 [AV22] | 0 | 7 | 25 | – | – | – | – | –
– | O=C(CCCCn1cnc2c(S)ncnc21)Nc1ccc(C(=O)O)c(O)c1 [AV2] | 0 | 1 | 1 | – | – | – | – | –
– | CN(Cc1cnc2nc(N)nc(N)c2n1)c1ccc(C(=O)NC(CCCCN)C(=O)O)cc1 (stereo not drawn) [AV4] | 0 | 30 | 16 | – | – | – | – | –
– | CCOc1cc(/C=N/Nc2nc(Nc3ccccc3)nc(N3CCCCC3)n2)ccc1OCC(=O)O [AV14] | 0 | 3 | 70 | – | – | – | – | –
– | O=C(O)COc1ccc(/C=N/NC(=O)c2ccc(O)cc2)cc1OCC(=O)O [AV29] | 9 | 21 | 14 | – | – | – | – | –
– | COc1cc(/C=C2/SC(N(C)c3ccc(O)cc3)=NC2=O)ccc1OCC(=O)O [AV25] | 12 | 29 | 26 | – | – | – | – | –
– | Nc1nc(O)c2cc(CSc3ccc(C(=O)NC(CCC(=O)O)C(=O)O)cc3)ccc2n1 (stereo not drawn) [AV7] | 0 | 22 | 5 | – | – | – | – | –
0.605 | CS(=O)(=O)Nc1ccc(C2=NN(C(=O)CCCC(=O)O)C(c3ccco3)C2)cc1 (stereo not drawn) [AV32] | 18 | 26 | 0 | > 20 | > 20 | > 20 | > 20 | > 20
– | Nc1nc(O)c2nc3c(nc2n1)C(=O)N(c1ccc(C(=O)NC(CCC(=O)O)C(=O)O)cc1)C3 (stereo not drawn) [AV6] | 0 | 19 | 12 | – | – | – | – | –
– | CC1=NN(c2ccc(C(=O)O)cc2)C(=O)/C1=C/c1ccc(-c2ccc(S(N)(=O)=O)cc2)o1 [AV19] | 6 | 66 | 30 | > 20 | 19 ± 4 | – | > 20 | –
